In patent US20210169690A1, “Self-Retaining Implantable Drug Delivery Device” (GoldenBiotech, LLC, priority 2019, published 2021):

Legend:
Format in all cases: physicochemical
[1] = Visual examination of physical appearance and mixing of drug-loaded silicone polymer matrix test samples; details: 15% and 20% Travoprost test samples
From the text: To test the loading capacity of a silicone elastomer polymer matrix for a prostaglandin analogue, polymer matrix with different amounts and types of a prostaglandin analogue were made and the physical and mechanical properties of the resulting polymerized drug-loaded matrix were characterized (Tables 1-3). These polymer matrix test samples were made by mixing together a prostaglandin analogue, a liquid cyclic vinyl siloxane elastomer, a crosslinker, and a catalyst using a high-speed mixer and then heated the capped container at 70° C. for 24 hours to cure the mixture. A filler, such as a fumed silica, was also used to provide sufficient mechanical strength to the polymerized matrix. In addition, an inhibitor was used to slow the crosslinking reaction to a workable rate. The resulting thin-disc-shaped drug-loaded polymer matrix was allowed to cool to room temperature and then placed in 4° C. for 24 hours to increase stiffness of the material. The physical appearance of each drug-loaded polymer matrix test sample was examined visually and its mechanical properties analyzed using a durometer.

[2] = In vitro drug release from silicone polymer matrix test samples in PBS pH 7.4 at 37° C., RPHPLC; details: 10% Travoprost matrix plug, PARYLENE about 0.68 μm, two 18G depot channels
Description: To test the controlled release properties of the disclosed drug-loaded silicone polymer matrices, the effects of a coating were examined. In these experiments, test samples were made as described in Example 1 to produce thin-disc-shaped drug-loaded polymer matrix. From this material, test samples were prepared by 1) cutting out rectangular polygons of about 3 mm length, about 1 mm width and about 1 mm height were cut from polymerized drug-loaded material; or 2) cutting out cylindrical plugs of about 3 mm length and having a diameter of about 0.5 mm to about 1 mm. The weight of the test samples were in the range about 0.1 mg to about 4 mg.
Certain of these cut test samples were then coated using one of three procedures. Cut test samples were coated with a polymer like poly(p-xylylene) (PARYLENE) to a thickness of about 0.10 μm to about 0.95 μm using a vapor phase deposition procedure. Similarly, cut test samples were coated a metal like titanium to a thickness of about 0.10 μm to about 0.95 μm using a vapor phase deposition procedure. Alternatively, cut test samples were physically wrapped with a tape like polytetrafluoroethylene tape and sealed using cyanoacrylate adhesive.
The presence of opening in a coated test sample was also examined. In these experiments, coated test samples were punctured to produce opening through the coating layer. From one to four opening were made using the tip of an 18G, 23G, 27G or 31G needle. Two types of opening were produced 1) surface pores which created openings only through the coating layer but left the polymer matrix intact; and 2) depot channels which created a tunnel through the entire coated test sample from one end to the other end.
To examine the drug release properties of a test sample, each sample was placed in 2 mL Eppendorf tube containing 1.5 mL of Phosphate Buffered Saline, pH 7.4 (PBS). These tubes were slowly rocked at 37° C. in an incubator. At given time points the PBS was completely removed from the tube and refilled with fresh PBS. An aliquot of the removed PBS was then analyzed by reversed phase HPLC (RPHPLC) to determine the amount of drug released from the test sample during the incubation period. In these experiments, a 10 μL injection of the test sample aliquot was run on an Agilent 1260 Infinity in a reverse phase isocratic mode using UV detection at 210 nm. The column was a Hypersil GOLD Phenyl column, (Dim. (mm) 250×4.6) and the mobile phase was a 1:1 mixture of acetonitrile to aqueous buffer (comprising HPLC grade water mixed with 5 mM ammonium acetate and 0.02% formic acid). The flow rate was 1.2 mL/min and column temperature was 22° C. Peak detection and quantitation was determined by establishing a calibration curve using known amounts of each drug tested and the amount of drug present in the test sample aliquot interpolated from this calibration curve using ChemStation software.

[3] = Higuchi equation analysis of drug release data
Description: In order to ascertain whether the mechanism of drug release was based on diffusion, data obtained from various coated silicone polymer matrices were analyzed using the Higuchi equation. This analysis determined the linearity between the cumulative amount of drug released and the square root of time (SQRT). […] As exemplified FIG. 10, data is plotted as the square root of time taken on the x-axis and the cumulative percentage of drug release on the y-axis.

[4] = Korsmeyer-Peppas analysis of drug release data
Description: To confirm the results obtained based on the Higuchi equation analysis, the data above was also analyzed using the Korsmeyer-Peppas plot, which evaluates the mechanism of drug release by plotting the log of percent drug released over the log time in hours. If n equals 0.45, then Fickian diffusion is indicated for a cylinder (0.42 for cylinder of low aspect ratio). […] As exemplified FIG. 11, data is plotted as the log of cumulative percent drug released on the y-axis and the log time in hours on the x-axis.

[5] = Modified Higuchi plot (2A versus Q^2/T)
Description: Travoprost and Latanoprost are oily liquids at room temperature whereas Bimatoprost is a solid at room temperature. To determine whether the liquid versus solid phase of these drugs affects their release from the silicone polymer matrix, data was analyzed using an alternative plot based on the Higuchi equation where twice the drug loading value (2A) is plotted on the […] and the average slope of the plot of cumulative drug released squared versus time in hours (Q^2/T) is plotted on the […].

[6] = Chemical stability of prostaglandin analogues in PBS, RPHPLC; details: PBS at pH 4, 7 and 10; 4° C., 33° C. and 50° C.
Description: The chemical stability of prostaglandin analogues was also examined. In these experiments, a prostaglandin analogue was incubated in phospho-buffered saline (PBS) at pH 4, 7 and 10 and at 4° C., 33° C. and 50° C. representing long term storage, eye temperature and accelerate temperature conditions respectively. Analyses were performed by RPHPLC as described in Example 2, noting any hydrolysis products formed. […] This stability is most likely due to the amide linkage in Bimatoprost which is much more hydrolytically stable than the ester linkage in Latanoprost and Travoprost.

Question: With CC(C)OC(=O)CCC/C=C\C[C@@H]1[C@@H](/C=C/[C@@H](O)COc2cccc(C(F)(F)F)c2)[C@H](O)C[C@@H]1O [Travoprost] as the molecule, how does the “physical examination of test samples” value [1] read?
Answer: exhibited more elasticity but had surfaces with tacky attributes and a consistency that was not fully homogeneous

Question: What about the “Daily Release Rate” value ([2]; day 1) of the same molecule?
Answer: 3.12 µg/day

Question: What about the “Daily Release Rate” value ([2]; day 5) of the same molecule?
Answer: 2.21 µg/day

Question: And the “Daily Release Rate” value ([2]; day 13)?
Answer: 1.15 µg/day

Question: What about the “Daily Release Rate” value ([2]; day 22) of the same molecule?
Answer: 1.29 µg/day

Question: And the “Daily Release Rate” value ([2]; day 26)?
Answer: 1.30 µg/day

Question: And the “Daily Release Rate” value ([2]; day 35)?
Answer: 1.16 µg/day

Question: What about the “Daily Release Rate” value ([2]; day 43) of the same molecule?
Answer: 1.15 µg/day

Question: What about the “Daily Release Rate” value ([2]; day 54) of the same molecule?
Answer: 1.35 µg/day

Question: And the “Daily Release Rate” value ([2]; day 63)?
Answer: 1.16 µg/day

Question: What about the “Daily Release Rate” value ([2]; day 70) of the same molecule?
Answer: 1.20 µg/day

Question: What about the “Daily Release Rate” value ([2]; day 83) of the same molecule?
Answer: 0.900 µg/day

Question: And the “Daily Release Rate” value ([2]; day 90)?
Answer: 0.882 µg/day

Question: What about the “Daily Release Rate” value ([2]; day 97) of the same molecule?
Answer: 0.387 µg/day

Question: And the “Daily Release Rate” value ([2]; day 105)?
Answer: 0.891 µg/day

Question: What about the “Daily Release Rate” value ([2]; day 111) of the same molecule?
Answer: 0.798 µg/day

Question: What about the “Daily Release Rate” value ([2]; day 162) of the same molecule?
Answer: 0.557 µg/day

Question: What about the “Average Linear Regression r^2 Value, Higuchi Equation Analysis” value (“Average Linear Regression r^2 Value” below) ([3]; Drug Loading 2.5%) of the same molecule?
Answer: 0.976

Question: And the “Average Linear Regression r^2 Value” value ([3]; Drug Loading 5%)?
Answer: 0.972

Question: And the “Average Linear Regression r^2 Value” value ([3]; Drug Loading 10%)?
Answer: 0.941

Question: What about the “Average n Values, Korsmeyer-Peppas Analysis” value ([4]; Drug Loading 2.5%) of the same molecule?
Answer: 0.543±

Question: What about the “Average n Values, Korsmeyer-Peppas Analysis” value ([4]; Drug Loading 5%) of the same molecule?
Answer: 0.507±

Question: What about the “Average n Values, Korsmeyer-Peppas Analysis” value ([4]; Drug Loading 10%) of the same molecule?
Answer: 0.453±

Question: What about the “Average n Values, Korsmeyer-Peppas Analysis, Mean” value ([4]; Mean over drug loadings) of the same molecule?
Answer: 0.50 ± 0.09

Question: What about the “average slope of cumulative drug released squared versus time in hours (Q^2/T)” value ([5]; Loading (A %) 1.0) of the same molecule?
Answer: 0.071 ± 0.001

Question: And the “average slope of cumulative drug released squared versus time in hours (Q^2/T)” value ([5]; Loading (A %) 2.5)?
Answer: 0.388 ± 0.046

Question: And the “average slope of cumulative drug released squared versus time in hours (Q^2/T)” value ([5]; Loading (A %) 5.0)?
Answer: 1.097 ± 0.218

Question: And the “average slope of cumulative drug released squared versus time in hours (Q^2/T)” value ([5]; Loading (A %) 10)?
Answer: 15.821 ± 4.141

Question: What about the “relationship of Q^2/T to 2A in modified Higuchi plot” value ([5]; Table 10, FIG. 12 and FIG. 13) of the same molecule?
Answer: curvilinear relationship

Question: And the “chemical stability (hydrolysis products)” value [6]?
Answer: excellent stability
